Where a SMILES comes first, the peptide text is derived from it. Bridges are numbered along the chain shown (N, C = ends). [ ]: non-standard residue; d: D form. The star is where a group is joined. ξ: configuration not given here. X1 = CC(C)(C)[Si](F)(c1ccc(C[N+](C)(C)CC(=O)*)cc1)C(C)(C)C; DO3AM = NC(=O)CN1CCN(CC(N)=O)CCN(CC(=O)*)CCN(CC(N)=O)CC1; ξW = NC(Cc1c[nH]c2ccccc12)C(=O)O; dDap = NC[C@@H](N)C(=O)O; ξF = NC(Cc1ccccc1)C(=O)O; ξD = NC(CC(=O)O)C(=O)O; ξC = NC(CS)C(=O)O
How the values were obtained:
[1] = Octanol-water distribution coefficient (logD pH 7.4) of the labeled tracer; assay type: physicochemical; details: n-octanol/PBS pH 7.4, room temperature
Method in brief: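 About 1 MBq tracer partitioned in 1:1 PBS pH 7.4/n-octanol, mixed 3 min at room temperature, centrifuged 15000 g for 5 min. Both layers counted by gamma counter; at least six repeats.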

SST2 = biological target: T1, SST2 (Homo sapiens, UniProt P30874); assay: Determination of IC50: competitive binding against [125I]TOC on SST2-transfected CHO cells; details: [125I]TOC reference radioligand, 60 min room temperature
T1 construct: expressed in transfected cells; host or cells: CHO (Chinese hamster ovary) cells
T1 sequence (P30874 whole entry, species assumed): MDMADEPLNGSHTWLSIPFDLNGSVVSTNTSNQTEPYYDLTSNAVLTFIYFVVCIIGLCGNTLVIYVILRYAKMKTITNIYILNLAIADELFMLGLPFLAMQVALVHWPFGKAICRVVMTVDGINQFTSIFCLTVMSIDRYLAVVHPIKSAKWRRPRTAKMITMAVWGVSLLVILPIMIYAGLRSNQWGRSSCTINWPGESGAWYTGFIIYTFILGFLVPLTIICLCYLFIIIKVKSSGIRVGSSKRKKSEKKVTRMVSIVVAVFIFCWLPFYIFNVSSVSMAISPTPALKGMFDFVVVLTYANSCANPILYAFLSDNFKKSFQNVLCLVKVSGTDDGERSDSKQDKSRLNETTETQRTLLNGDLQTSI

HSA = HSA (Homo sapiens, UniProt P02768); assay: HSA binding by RIAC method (gel filtration, apparent molecular weight); assay type: in vitro ADME; details: HSA binding as apparent molecular weight, 700 μM HSA in PBS mobile phase
Chain of HSA (P02768 25-609): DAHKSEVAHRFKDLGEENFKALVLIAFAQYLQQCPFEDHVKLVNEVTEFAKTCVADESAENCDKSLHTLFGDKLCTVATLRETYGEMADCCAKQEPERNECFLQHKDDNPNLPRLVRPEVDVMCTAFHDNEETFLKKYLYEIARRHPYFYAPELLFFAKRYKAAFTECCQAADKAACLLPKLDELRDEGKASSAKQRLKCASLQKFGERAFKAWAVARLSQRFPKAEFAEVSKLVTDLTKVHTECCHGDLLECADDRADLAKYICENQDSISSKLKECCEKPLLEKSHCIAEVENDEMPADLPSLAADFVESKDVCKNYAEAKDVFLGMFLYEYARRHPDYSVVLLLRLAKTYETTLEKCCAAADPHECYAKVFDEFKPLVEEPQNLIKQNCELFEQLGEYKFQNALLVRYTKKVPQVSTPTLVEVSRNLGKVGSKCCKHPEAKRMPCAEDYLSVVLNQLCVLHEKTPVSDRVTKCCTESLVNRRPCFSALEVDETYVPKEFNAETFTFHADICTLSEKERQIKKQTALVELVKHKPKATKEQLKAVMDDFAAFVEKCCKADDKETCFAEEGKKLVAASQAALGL
Experimental: A gel filtration column Superdex 75 Increase 10/300 GL (GE Healthcare, Uppsala, Sweden) was beforehand calibrated following the producer's recommendations with a commercially available gel filtration calibration kit (GE Healthcare, Buckinghamshire, UK) comprising conalbumin (MW: 75 kDa), ovalbumin (44 kDa), carbonic anhydrase (29 kDa), ribonuclease A (13.7 kDa) and aprotinin (6.5 kDa) as reference proteins of known molecular weight. AMSEC experiments were conducted using a constant flow rate of 0.8 mL/min at rt. A solution of HSA in PBS at physiological concentration (700 μM) was used as the mobile phase. SST2 ligands were labelled as described with molar activities of 10-20 GBq/μmol. Probes of 1.0 MBq of the radioligand were injected directly from the labelling solution. HSA binding was expressed as an apparent molecular weight MW calculated from the retention time of the radioligand using the determined calibration curve.
For evaluation, experimentally determined retention times tR are first converted into elution volumes Ve by multiplying with the flow rate and thereafter converted into partition coefficients Kav following the equation
where V0 is the column void volume (8.027 mL) and Vc is the geometric column volume (24 mL). Using the equation given by the trend line plot of the column calibration
the apparent molecular weight MW is calculated as […]

| SMILES | LogDpH=7.4 [1] | IC50 (SST2) [nM] | HSA (HSA) [kDa] |
| --- | --- | --- | --- |
| C[C@@H](O)[C@H](NC(=O)C1CSSCC(NC(=O)C(Cc2ccccc2)NC(=O)CNC(=O)CNC(=O)[C@@H](CC(=O)O)NC(=O)C(CC(=O)O)NC(=O)[C@@H](CNC(=O)CN2CCN(CC(N)=O)CCN(CC(N)=O)CCN(CC(N)=O)CC2)NC(=O)C[N+](C)(C)Cc2ccc([Si](F)(C(C)(C)C)C(C)(C)C)cc2)C(=O)N[C@@H](Cc2ccc(O)cc2)C(=O)NC(Cc2c[nH]c3ccccc23)C(=O)N[C@@H](CCCCN)C(=O)N[C@@H]([C@@H](C)O)C(=O)N1)C(=O)O (some centres unmarked) [[Pb]38] (X1-[dDap](DO3AM)[ξD][dD]GG[ξF][ξC]Y[ξW]KT[ξC]T-OH; disulfide 7-12) | −1.95 ± 0.03 | 4.67 ± 0.73 | 9.20 |
| C[C@@H](O)[C@H](NC(=O)C1CSSCC(NC(=O)C(Cc2ccccc2)NC(=O)CNC(=O)CNC(=O)CNC(=O)C(CC(=O)O)NC(=O)[C@@H](CC(=O)O)NC(=O)C(CNC(=O)CN2CCN(CC(=O)O)CCN(CC(=O)O)CCN(CC(=O)O)CC2)NC(=O)[C@@H](CN)NC(=O)c2ccc([Si](F)(C(C)(C)C)C(C)(C)C)cc2)C(=O)N[C@@H](Cc2ccc(O)cc2)C(=O)NC(Cc2c[nH]c3ccccc23)C(=O)N[C@@H](CCCCN)C(=O)N[C@@H]([C@@H](C)O)C(=O)N1)C(=O)O (some centres unmarked) (natGa complex, metal not drawn) [[Ga]40] | −2.24 ± 0.03 | 3.61 ± 0.29 | 19.25 |
| C[C@@H](O)[C@H](NC(=O)C1CSSCC(NC(=O)C(Cc2ccccc2)NC(=O)CNC(=O)CNC(=O)[C@@H](CC(N)=O)NC(=O)C(CC(N)=O)NC(=O)[C@@H](CNC(=O)CC[C@H](C(=O)O)N2CCN(CC(=O)O)CCN(CC(=O)O)CCN(CC(=O)O)CC2)NC(=O)C(CN)NC(=O)c2ccc([Si](F)(C(C)(C)C)C(C)(C)C)cc2)C(=O)N[C@@H](Cc2ccc(O)cc2)C(=O)NC(Cc2c[nH]c3ccccc23)C(=O)N[C@@H](CCCCN)C(=O)N[C@@H]([C@@H](C)O)C(=O)N1)C(=O)O (some centres unmarked) (natGa complex, metal not drawn) [[Ga]41] | −1.58 ± 0.05 | 3.64 ± 0.64 | 15.48 |
| C[C@@H](O)[C@H](NC(=O)C1CSSCC(NC(=O)C(Cc2ccccc2)NC(=O)[C@@H](CC(N)=O)NC(=O)C(CC(N)=O)NC(=O)[C@@H](CC(=O)O)NC(=O)C(CC(=O)O)NC(=O)[C@@H](CNC(=O)CN2CCN(CC(=O)O)CCN(CC(=O)O)CCN(CC(=O)O)CC2)NC(=O)C(CN)NC(=O)c2ccc([Si](F)(C(C)(C)C)C(C)(C)C)cc2)C(=O)N[C@@H](Cc2ccc(O)cc2)C(=O)NC(Cc2c[nH]c3ccccc23)C(=O)N[C@@H](CCCCN)C(=O)N[C@@H]([C@@H](C)O)C(=O)N1)C(=O)O (some centres unmarked) (natGa complex, metal not drawn) [[Ga]42] | −2.41 ± 0.05 | 5.33 ± 0.78 | 17.97 |
| C[C@@H](O)[C@H](NC(=O)C1CSSCC(NC(=O)C(Cc2ccccc2)NC(=O)CNC(=O)CNC(=O)[C@@H](CCCN)NC(=O)C(CCCN)NC(=O)[C@@H](CNC(=O)CC[C@H](C(=O)O)N2CCN(CC(=O)O)CCN(CC(=O)O)CCN(CC(=O)O)CC2)NC(=O)C(CN)NC(=O)c2ccc([Si](F)(C(C)(C)C)C(C)(C)C)cc2)C(=O)N[C@@H](Cc2ccc(O)cc2)C(=O)NC(Cc2c[nH]c3ccccc23)C(=O)N[C@@H](CCCCN)C(=O)N[C@@H]([C@@H](C)O)C(=O)N1)C(=O)O (some centres unmarked) (natGa complex, metal not drawn) [[Ga]37] | −1.92 ± 0.04 | 4.66 ± 0.53 | 17.60 |
| C[C@@H](O)[C@H](NC(=O)C1CSSCC(NC(=O)C(Cc2ccccc2)NC(=O)COCCOCCNC(=O)C(CC(=O)O)NC(=O)[C@@H](CC(=O)O)NC(=O)C(CNC(=O)CN2CCN(CC(=O)O)CCN(CC(=O)O)CCN(CC(=O)O)CC2)NC(=O)[C@@H](CN)NC(=O)c2ccc([Si](F)(C(C)(C)C)C(C)(C)C)cc2)C(=O)N[C@@H](Cc2ccc(O)cc2)C(=O)NC(Cc2c[nH]c3ccccc23)C(=O)N[C@@H](CCCCN)C(=O)N[C@@H]([C@@H](C)O)C(=O)N1)C(=O)O (some centres unmarked) (natGa complex, metal not drawn) [[Ga]23] | −1.86 ± 0.06 |  | 18.59 |

Reference: patent publication US20240317780A1, “RADIOPHARMACEUTICAL SOMATOSTATIN RECEPTOR LIGANDS AND PRECURSORS THEREOF” (Technische Universität München, priority 2021, published 2024)
